Measurements taken from the supplement of paper PMC8671470.

Legend:
Settings in all cases: 72 h
HL-60 [1] = assay: cell viability (% survival relative to DMSO control); higher = less cytotoxic
Procedure, shortened: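 HL-60 cells in RPMI 1640 with 10% FBS were rescreened against the full library on 384-well plates at five tenfold concentrations, 1–10,000 nM, in duplicate. Each screen was run with DMSO or 100 nM of one of three metabolic inhibitors, for 72 h at 37 °C, 5% CO2. Viability was read by CellTiter-Glo and normalised to DMSO and 10 μM proteasome-inhibitor wells. Where given, area under the curve came from four-parameter log-logistic fits (drc, PharmacoGx).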

LAMA-84 [2] = assay: cell viability (% survival relative to DMSO control, bortezomib = 0%); higher = less cytotoxic
Procedure, shortened: (§1)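 Fifteen myeloid leukaemia cell lines (10 AML, 5 CML) were seeded at a density titrated to the linear growth range into 384-well plates pre-printed with compounds at 1, 10, 100, 1000 or 10000 nM in duplicate. Plates were incubated for 72 h at 37 °C with 5% CO2. Viability was then read by CellTiter-Glo luminescence. Each value is percent survival averaged over the duplicates, with vehicle set to 100% and a 10 µM positive control to 0%.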

Mono-Mac-6 [3] = assay: as above
Procedure, shortened: as §1

K-562 [4] = assay: as above
Procedure, shortened: as §1

ML-2 [5] = assay: as above
Procedure, shortened: as §1

BV-173 [6] = assay: as above
Procedure, shortened: as §1

KU-812 [7] = assay: as above
Procedure, shortened: as §1

HEL [8] = assay: as above
Procedure, shortened: as §1

MV4-11 [9] = assay: as above
Procedure, shortened: as §1

NOMO-1 [10] = assay: as above
Procedure, shortened: as §1

SHI-1 [11] = assay: as above
Procedure, shortened: as §1

THP-1 [12] = assay: as above
Procedure, shortened: as §1

HL-60 [13] = assay: as above
Procedure, shortened: as §1

LAMA-84 [14] = tested on: LAMA-84
Procedure, shortened: (§2)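 The IC50 was read from log-logistic dose–response fits. Fifteen myeloid leukaemia lines were exposed for 72 h at 37 °C with 5% CO2 to five tenfold doses from 1 to 10,000 nM in duplicate. ATP luminescence, normalised to vehicle and to a 10 µM positive control, was fitted with four parameters.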

KG-1 = tested on: KG-1
Procedure, shortened: as §2

Mono-Mac-6 [15] = tested on: Mono-Mac-6
Procedure, shortened: as §2

K-562 [16] = tested on: K-562
Procedure, shortened: as §2

ML-2 [17] = tested on: ML-2
Procedure, shortened: as §2

BV-173 [18] = tested on: BV-173
Procedure, shortened: as §2

MOLM-13 = tested on: MOLM-13
Procedure, shortened: as §2

KU-812 [19] = tested on: KU-812
Procedure, shortened: as §2

HEL [20] = tested on: HEL
Procedure, shortened: as §2

MV4-11 [21] = tested on: MV4-11
Procedure, shortened: as §2

NOMO-1 [22] = tested on: NOMO-1
Procedure, shortened: as §2

SHI-1 [23] = tested on: SHI-1
Procedure, shortened: as §2

THP-1 [24] = tested on: THP-1
Procedure, shortened: as §2

KCL-22 = tested on: KCL-22
Procedure, shortened: as §2

HL-60 [25] = tested on: HL-60
Procedure, shortened: as §2

O[C@H]1[C@H]2[C@H](O)CCCN2C[C@H]1O [Swainsonine]
cell viability [%], HL-60 [1]
Settings | 0.001 µM | 0.01 µM | 0.1 µM | 1 µM | 10 µM
co-treatment: AZD3965 100 nM | 97.6 | 103.58 | 97.5 | 98.4 | 102
co-treatment: DMSO vehicle | 99.37 | 104 | 102 | 103 | 108
co-treatment: GSK2194069 100 nM | 98.4 | 110 | 97.2 | 90.3 | 106
co-treatment: pictilisib 100 nM | 101 | 108 | 91.9 | 120 | 106

cell viability [%]
Settings | 1 nM | 10 nM | 100 nM | 1000 nM | 10000 nM
BV-173 [6] | 98.1 | 104 | 98.3 | 90.8 | 86.1
HEL [8] | 99.2 | 83.9 | 108 | 97.3 | 92.5
HL-60 [13] | 107 | 88 | 104 | 95.8 | 112
K-562 [4] | 109 | 107 | 102 | 101 | 107
KU-812 [7] | 104 | 100 | 100 | 99.8 | 109
LAMA-84 [2] | 112 | 94 | 103 | 99.7 | 98.6
ML-2 [5] | 97.9 | 97.7 | 108 | 86.4 | 79.5
MV4-11 [9] | 102 | 113 | 87.2 | 69.8 | 69.3
Mono-Mac-6 [3] | 101 | 106 | 106 | 90 | 102
NOMO-1 [10] | 109 | 103 | 99.4 | 94.7 | 94.1
SHI-1 [11] | 93.8 | 110 | 109 | 108 | 102
THP-1 [12] | 102 | 102 | 106 | 97.8 | 101

Settings | IC50 (cell viability) [µM]
BV-173 [18] | > 10
HEL [20] | > 10
HL-60 [25] | > 10
K-562 [16] | > 10
KCL-22 | > 10
KG-1 | > 10
KU-812 [19] | > 10
LAMA-84 [14] | > 10
ML-2 [17] | > 10
MOLM-13 | > 10
MV4-11 [21] | > 10
Mono-Mac-6 [15] | > 10
NOMO-1 [22] | > 10
SHI-1 [23] | > 10
THP-1 [24] | > 10
